Measurements as given in paper PMC10208956, “Microbial peptides activate tumour-infiltrating lymphocytes in glioblastoma” (Nature, 2023).

Tests used:
[1] = tested on: sorted CD4+ PE and FITC TCRVβ+ TILs; test: Proliferation of TCRBV-sorted CD4+ TILs (without TCRBV6.1 and TCRBV6.2); format: cell-based, human; settings: sheet 6b
Text: TILs expressing specific TCRBVs were isolated from bulk TILs using a panel of 22 fluorescently labelled TCRBV antibodies that detect 27 different TCRBVs. Twelve TCRBV antibodies were labelled with PE and 10 with FITC (Beckman Coulter). […] After another wash, cells were stained with CD4 (1:100) (APC anti-human CD4, eBioscience), CD8 (1:100) (Pacific blue anti-human CD8, BioLegend), TCRBV-PE (1:25) (Beckman Coulter) and TCRBV-FITC (1:25) (Beckman Coulter) antibodies (Supplementary Table 12) for 30 min. Finally, cells were sorted, seeded at 5 × 10^4 cells per well in T cell medium without h-IL-2 and rested for 1 day before stimulation with 2 × 10^5 cells per well of irradiated autologous PBMCs (45 Gy) and peptide (10 µM).
Two populations of CD4^+ PE-TCRVβ^+ and CD4^+ FITC-TCRVβ^+ were sorted and later mixed together. […] Specific amount of each cytokine/chemokine (pg/ml) was calculated by subtracting the cytokines in the negative control cultures (no peptide control). Source data

TCC88 = settings: BLS-DRB3*02:02 as APCs; 3 days; SI ≥ 2 positive
[2] = tested on: bulk TILs (patient 1635WI); test: Cytokine and chemokine secretion of bulk TILs stimulated with IPdBPs; format: cell-based, human; design: key to CD40 Ligand / Flt-3 Ligand / GM-CSF / Granzyme B / IFN-α / IFN-γ / IL-1rα / IL-1α / IL-1β / IL-2 / IL-3 / IL-4 / IL-5 / IL-6 / IL-7 / IL-10 / IL-12p70 / IL-13 / IL-15 / IL-17A / IL-33 / TNF-α / RANTES: pg/mL, negative-control amount subtracted; CXCL2/GROβ / CXCL10/IP-10 / CCL2/MCP-1 / CCL3/MIP-1α / CCL4/MIP-1β: unit not given beside the values; settings: secretion by bulk TILs after peptide stimulation; sheet 1e
Text: Fig. 1 Elution of HLA class II-presented bacterial peptides from 19 glioblastomas and the stimulatory effect of IPdBPs on bulk TILs. a, Schematic of the immunopeptidome analyses of glioblastoma tissue, from which eluted peptides were annotated using the UniProt bacteria database (1). TILs or peripheral memory T cells were stimulated with IPdBPs (2 and 3). LC–MS, liquid chromatography–mass spectrometry; PBMC, peripheral blood mononuclear cell. The images in panel a were created using BioRender (https://biorender.com). b, Number of unique IPdBPs in patients with glioblastoma (n = 19) (data from patient 1635WI contains both primary and recurrent tumours together), with 344 unique IPdBPs identified (left). These peptides originated from 255 and 199 unique proteins and bacteria, respectively (3 technical replicates). […] As a control, peptidome data were also annotated using human protein database to identify eluted self-peptides. As shown, most of HLA class II-bound peptides are self-(human) peptides. IPdBPs of primary (bottom left, n = 18) and recurrent (bottom right, n = 23) tumours were separately annotated to their source bacteria at the phylum level. d, Bulk TILs (patient 1635WI) were stimulated with IPdBPs (See Supplementary Table 8), each in five replicate wells, and proliferation was measured after 5 days via ^3H-thymidine incorporation. […] The data are expressed as the mean value of all wells ± s.e.m. SIN3A* peptide was used as a positive control as TILs recognize this tumour antigen. T cells with APCs without any stimuli were used as a negative control. e, Heatmap of cytokine and chemokine secretion of TILs stimulated with three IPdBPs, which weakly stimulated proliferation. The secretion of each cytokine and chemokine was calculated by subtracting the corresponding cytokine and chemokine amount (pg ml^−1) of the negative control. TILs with APCs without any stimuli were used as a negative control. Also see Extended Data Fig. 1. Source data
Supernatants from each experiment were harvested a day before adding thymidine and frozen at −20 °C. Cytokines were measured using ELISA for human IFNγ ELISA MAX (BioLegend), human GM-CSF DuoSet ELISA (R&D Systems) and bead-based assays. A Synergy H1 hybrid multi-mode reader (Agilent) was used to measure the absorbance. The LEGENDplex Multi-analyte Flow Assay kit (BioLegend) is a 13-plex human TH cytokine panel, which includes IFNγ, TNF, IL-2, IL-4, IL-5, IL-6, IL-9, IL-10, IL-13, IL-17A, IL-17F, IL-21 and IL-22. […] LSR Fortessa Flow Cytometer (BD Biosciences) was used to measure cytokines, and data were analysed using FlowJo (Tree Star). The Human XL Cytokine Luminex Performance Assay Fixed Panel (R&D Systems) contains 45 analytes covering a broad range of various chemokines and cytokines.

With “LLDFNHSMVN [HGM26, human gut microbiota peptide]” the “Proliferation (SI) of sorted CD4+ TILs” value ([1]; replicate 1) was 1.889, the “Proliferation (SI) of sorted CD4+ TILs” value ([1]; replicate 2) was 1.31 and the “Proliferation (SI) of sorted CD4+ TILs” value ([1]; replicate 3) was 1.491.
LVDFFHSSAI [HGM32] was tested, and the “recognition by TCC88, proliferation (in words)” value (TCC88) was “stimulatory”.
For “LWEFNNVSLA [HB4, UniProt bacteria database peptide]”, the “Proliferation (SI) of sorted CD4+ TILs” value ([1]; replicate 1) was 1.585, the “Proliferation (SI) of sorted CD4+ TILs” value ([1]; replicate 2) was 1.003 and the “Proliferation (SI) of sorted CD4+ TILs” value ([1]; replicate 3) was 1.832.
For “LYEFNHSPGF [HGM7, human gut microbiota peptide]”, the “Proliferation (SI) of sorted CD4+ TILs” value ([1]; replicate 1) was 2.804, the “Proliferation (SI) of sorted CD4+ TILs” value ([1]; replicate 2) was 1.758 and the “Proliferation (SI) of sorted CD4+ TILs” value ([1]; replicate 3) was 3.368.
With QALVTLEENAVIG [Peptidome.Bac 14] the CCL2/MCP-1 [2] was 351.37, the CCL3/MIP-1α [2] was 23.58 and the CCL4/MIP-1β [2] was 78.06. For the same sequence, the CCL11/Eotaxin [2] was 0, the CCL19/MIP-3β [2] was 2.57 and the CCL20/MIP-3α [2] was 4.22. The “CD40 Ligand” value [2] was 666.28, the CXCL1/GROα [2] was 68.11 and the CXCL2/GROβ [2] was 60.34. For the same sequence, the CXCL8/IL-8 [2] was 917.52, the CXCL10/IP-10 [2] was 111.72 and the “Flt-3 Ligand” value [2] was 48.51. For the same sequence, the GM-CSF [2] was 38.36, the “Granzyme B” value [2] was 0 and the IFN-α [2] was 0. It also gave an IFN-γ [2] of 8.17, an IL-1rα [2] of 700.66 and an IL-1α [2] of 0. For the same sequence, the IL-1β [2] was 0, the IL-2 [2] was 2.34 and the IL-3 [2] was 0.97. It also gave an IL-4 [2] of 0, an IL-5 [2] of 0 and an IL-6 [2] of 110.14. The IL-7 [2] was 0.64, the IL-10 [2] was 11.57 and the IL-12p70 [2] was 0. The IL-13 [2] was 23.19, the IL-15 [2] was 0.56 and the IL-17A [2] was 0. For the same sequence, the IL-17E/IL-25 [2] was 0, the IL-33 [2] was 4.57 and the RANTES [2] was 0. For the same sequence, the TNF-α [2] was 26.86.
For “QLEFNHAIAS [HB2, UniProt bacteria database peptide]”, the “Proliferation (SI) of sorted CD4+ TILs” value ([1]; replicate 1) was 1.556, the “Proliferation (SI) of sorted CD4+ TILs” value ([1]; replicate 2) was 1.363 and the “Proliferation (SI) of sorted CD4+ TILs” value ([1]; replicate 3) was 1.455.
With VFAIDRAGLVGEDGPT [Peptidome.Bac 5] the CCL2/MCP-1 [2] was 40.48, the CCL3/MIP-1α [2] was 7.07 and the CCL4/MIP-1β [2] was 0. It also gave a CCL11/Eotaxin [2] of 0, a CCL19/MIP-3β [2] of 0 and a CCL20/MIP-3α [2] of 0. The “CD40 Ligand” value [2] was 0, the CXCL1/GROα [2] was 0 and the CXCL2/GROβ [2] was 5.86. For the same sequence, the CXCL8/IL-8 [2] was 0, the CXCL10/IP-10 [2] was 62.72 and the “Flt-3 Ligand” value [2] was 1.13. For the same sequence, the GM-CSF [2] was 16.51, the “Granzyme B” value [2] was 0 and the IFN-α [2] was 0. For the same sequence, the IFN-γ [2] was 0, the IL-1rα [2] was 212.62 and the IL-1α [2] was 0. It also gave an IL-1β [2] of 0, an IL-2 [2] of 0 and an IL-3 [2] of 0. It also gave an IL-4 [2] of 0, an IL-5 [2] of 0 and an IL-6 [2] of 8.61. The IL-7 [2] was 0.34, the IL-10 [2] was 0 and the IL-12p70 [2] was 0. It also gave an IL-13 [2] of 16.57, an IL-15 [2] of 0 and an IL-17A [2] of 0. The IL-17E/IL-25 [2] was 0, the IL-33 [2] was 0 and the RANTES [2] was 0. For the same sequence, the TNF-α [2] was 24.29.
